In patent publication US5457106A, “Pyridine derivatives, their production and use” (Takeda Chemical Industries, Ltd., priority 1991, dated 1995):
Where a name gives a salt, the structure may show the parent alone.

Assays:
[1] = test system: Rat reversed passive Arthus reaction (skin); test: Rat reversed passive Arthus reaction (skin) inhibitory activity; type: in vivo, rat (Jcl: SD); settings: po, orally, read-out: Inhibitory percentage (reversed passive Arthus reaction)
Method: Rat Reversed Passive Arthus Reaction (skin) Inhibitory Activity This reaction was-induced by using domestic rabbit anti-egg albumin (EA) antiserum according to the method of Chang and Otterness [Chang, Y. -H. and Otterness, I. G.: Eur. J. Pharmacol. 69, 155 (1981)]. Using six Jcl: SD male rats (7 weeks old, weight about 250 g) per one group, the hair was removed from the back under ether anesthesia, 1 ml of 0.5% EA physiological saline was injected […] into the tail vein, and further each 0.1 ml of diluted antiserum (6 mg protein antibody/ml) was injected in the back on both dexter and sinister sides. […] Acceleration of permeability through the vessel by the reaction was measured by injecting 1 ml of 1% Evans blue physiological saline intravenously at three hours after the induction of the reaction. Then, after 30 minutes, the rat was sacrificed by exsanguination. The skin was peeled off and the area of pigment spot (length×breadth, mm^2) was measured.

[2] = test system: Mouse phenylquinone writhing; test: Mouse phenylquinone writhing inhibitory activity; type: in vivo, mouse (Slc: ICR); settings: Mus musculus, po, 20 min, 50 mg/kg, orally; read-out: Inhibitory percentage (phenylquinone writhing)
How it was run: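 Male ICR mice (4 weeks, 17–24 g) dosed orally with compound suspended in 5% gum arabic. After 30 min, 0.02% phenylquinone (0.1 ml/10 g) given i.p.; writhing and stretching responses counted over 20 min.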

[3] = test system: ART (antigen-responding T-cell); test: In vitro ART (antigen-responding T-cell) proliferation test; type: cell-based, Lewis rat; settings: Rattus norvegicus, T-cell, read-out: % Inhibition of ART growth
[4] = test system: brewer's yeast induced pyrexia; test: Antipyretic activity (brewer's yeast induced pyrexia); type: in vivo, rat (DS line); settings: orally; for Antipyretic activity, .increment. °C.: at peak time
How it was run: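 Male DS rats (7 weeks, 200-240 g) made febrile by s.c. 15% brewer's yeast 18 h before dosing; only animals at ≥38.5° C used. Compound given orally versus solvent control, with rectal temperature taken by thermistor hourly for 5 h post-dose.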

cyclooxygenase = target: T1, cyclooxygenase (Rattus norvegicus, UniProt Q63921); test: Cyclooxygenase inhibitory activity (HHT formation from arachidonic acid in rat platelet-rich plasma); type: cell-based, rat (Jcl:wistar)
T1 construct: from tissue; host or cells: platelets in platelet-rich plasma from rat abdominal aorta blood (Jcl:wistar, male)
T1 sequence (Q63921 27-602): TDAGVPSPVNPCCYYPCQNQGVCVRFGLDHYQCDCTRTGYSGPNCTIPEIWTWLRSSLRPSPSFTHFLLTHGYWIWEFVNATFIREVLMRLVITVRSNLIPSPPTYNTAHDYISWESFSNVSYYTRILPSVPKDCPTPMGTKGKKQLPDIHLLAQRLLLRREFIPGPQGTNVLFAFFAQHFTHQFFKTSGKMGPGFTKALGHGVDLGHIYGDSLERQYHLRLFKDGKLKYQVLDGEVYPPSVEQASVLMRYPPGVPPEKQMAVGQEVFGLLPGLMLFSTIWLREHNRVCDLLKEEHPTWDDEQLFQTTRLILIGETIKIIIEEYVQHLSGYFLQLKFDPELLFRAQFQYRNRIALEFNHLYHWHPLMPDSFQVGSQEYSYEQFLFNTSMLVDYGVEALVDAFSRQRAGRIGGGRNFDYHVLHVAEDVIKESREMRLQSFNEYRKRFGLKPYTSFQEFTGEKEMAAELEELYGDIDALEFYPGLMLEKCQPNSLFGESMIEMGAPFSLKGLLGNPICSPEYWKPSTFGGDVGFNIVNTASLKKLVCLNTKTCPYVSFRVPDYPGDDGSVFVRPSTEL

[5] = test system: Rat carrageenin pedal edema; test: Rat carrageenin pedal edema inhibitory activity; type: in vivo, rat (Jcl: SD); settings: Rattus norvegicus, po, 3 h, orally, 3 hours after carrageenin, read-out: Inhibitory percentage (carrageenin pedal edema)
How it was run: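 Male Jcl:SD rats (6 weeks, 160-220 g) received test compound orally as a 5% gum arabic suspension, topped up with water to 5 ml/rat. One hour later 0.05 ml of 1% carrageenin was injected subcutaneously into the right hind foot pad. Edema volume was the foot volume increase 3 hours post-injection.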

ICAM-1 = test: Adhesion protein expression inhibitory activity, ICAM-1; type: cell-based; settings: human umbilical vascular endothelial cells, TNF-α, 360 min
Method: (§1) Adhesion Protein Expression Inhibitory Activity The various concentrations of test compounds were added to the human umbilical cord-derived vascular endothelial cells [sold by Klabo] which were seeded in the gelatin coat plate and the mixture was incubated at 37° C. for 15 minutes. Then, the human tumor necrosis factor-α[TNF-α; sold by Genzyme] was added therein to the final concentration of 1 ng/ml and incubation was carried out at 37° C. for 3 hours for expression of ELAM-1 and for 6 hours for that of ICAM-I. After the reaction, the cells were fixed using glutaraldhyde and the expression amount of ELAM-1 and ICAM-1 was measured by the cell-ELISA method. That is, the expression was determined by […] the adhesion proteins on the cells in the system using anti-ELAM-1 antibody BBA-2 and anti-ICAM-1 antibody BBA4 as the first antibody as well as horseradish peroxidase-labeled rabbit anti-mouse IgG antibody as the second antibody.

[6] = test system: PAF induced respiratory tract constriction; test: PAF induced respiratory tract constriction inhibitory activity; type: in vivo, guinea pig (Hartley); settings: intravenously
From the text: PAF Induced Respiratory Tract Constriction Inhibitory Activity Male and female Hartley guinea pigs, weighing about 100 g, were used. The guinea pigs were fixed at a dorsal position under urethane anethesia (1.5 g/kg, i.p.). One leg of a cannula (having four legs) was inserted in the trachea and two of the other three legs were bound to the respirator (Harvard apparatus rodent respirator). The remaining one leg (side branch) was bound to the bronchospasm transducer 7.020 (Ugobasile). Under the conditions of 5 to 7 ml of air supply/time, 70 times/min. of supply time and 10 cm H2 O of pulmonary pressure load, the amount of over flow air was recorded on a Rectigraph (Rectigraph-8S, Saneissoki) via the transducer. After Gallamine […] treatment (1 mg/kg, i.v.), PAF was administered intravenously (1.0 μg/kg) and the maximum respiratory tract constriction response was observed after 30 seconds. Under these conditions, the inhibitory activity of the test compounds were examined.

[7] = test system: Mouse acetic acid writhing; test: Mouse acetic acid writhing inhibitory activity; type: in vivo, mouse (Slc: ICR); settings: Mus musculus, po, 20 min, orally, read-out: Inhibitory percentage (acetic acid writhing)
Method: Mouse Acetic Acid Writhing Inhibitory Activity
Ten male Slc: ICR mice, 4 weeks old, per 1 group were used. A test compound was administered orally, and after 30 minutes, 0.1 ml/10 g body weight of physiological saline containing 0.6% acetic acid was injected intraperitoneally. For 20 minutes, writhing (in agony condition) response by administration of acetic acid was counted regarding individual animals. The inhibitory percentage relative to the mean response counts of a control group was calculated regarding respective animals in a test compound administration group. The test compound was suspended in 5% gum arabic solution, and the administration volume was 0.2 ml/10 g.

[8] = test system: brewer's yeast inflamed rat hind limb foot pad pain threshold; test: Pain relief test by Randall Celit method; type: in vivo; settings: orally
Method: Pain Relief Test By Randall Celit Method
Seven to eight male Jcl: […] rats, 5 weeks old, per one group were used. 0.1 ml of 10% brewer's yeast physiological saline suspension was injected subcutaneously in the rat dexter hind limb foot pad to induce inflammation. After three hours, the pain threshold was measured by pressure stimulating pain relief measuring apparatus manufactured by Ugo Basile Company (Cat. No. 7200) using an index of […] pain reflex in the inflammatory limb (dexter hind limb), and this was taken as response threshold value in the inflammatory limb. A test compound was administered after additional 45 minutes orally, and the threshold was measured after one and two hours. The efficacy was determined by comparing threshold of a control group and that of the test compound group. The test compound was suspended in 5% gum arabic solution and the administration volume was 0.5 ml/100 g.

ELAM-1 = test: Adhesion protein expression inhibitory activity, ELAM-1; type: cell-based; settings: 13 μM, human umbilical vascular endothelial cells, TNF-α; 180 min
Method: as §1

Structure (SMILES) | inhibition in vivo at 50 mg/kg [1] | inhibition in vivo at 50 mg/kg [2] | inhibition at 1 µM [3] | inhibition at 10 µM [3] | Antipyretic activity, peak time ([4]; 50 mg/kg) | Antipyretic activity, .increment. °C. ([4]; 50 mg/kg) | inhibition in vivo at 50 mg/kg [5] | also measured
CC(C)(C)C(=O)NCCCSc1ccncc1.Cl [Example 24, 4-[3-(pivaloylamino)propylthio]pyridine hydrochloride] | 46% | 56% | 29% | 35% | 2 h | -1.33 °C | – | –
CC(C)(C)c1ccc(C(=O)NCCCSc2ccncc2)cc1 [Example 32, 4-[3-(4-t-butylbenzoylamino)propylthio]pyridine hydrochloride] | 41% | 63% | 43% | 37% | 1 h | -1.39 °C | – | IC50 (cyclooxygenase): 6.5 µM
CCCCOc1ccc(C(=O)NCCCSc2ccncc2)cc1 [Example 35, 4-[3-(4-n-butoxybenzoylamino)propylthio]pyridine hydrochloride] | 30% | 60% | 18% | 33% | – | – | – | IC50 (cyclooxygenase): 2.3 µM
O=C1c2ccccc2C(=O)N1CSc1ccncc1 [Example 62, 4-(phthalimidomethylthio)pyridine] | 27% | 55% | – | – | 4 h | -1.40 °C | 36% | inhibition in vivo at 12.5 mg/kg ([5]; 12.5 mg/kg): 20%
O=c1c2ccccc2oc(=S)n1CCCSc1ccncc1 [Example 141, 3-[3-(4-pyridylthio)propyl]-2H-1,3-benzoxadine-2-thion-4(3H)-one] | – | – | -21% | 64% | 3 h | -2.40 °C | 36% | Expression Inhibitory Potency, ICAM-1 (ICAM-1; 3 μM): 21%; Expression Inhibitory Potency, ICAM-1 (ICAM-1; 30 μM): 54%; Inhibitory activity (PAF induced respiratory tract constriction) ([6]; 3 mg/kg): 51.7%; Antipyretic activity, peak time ([4]; 12.5 mg/kg): 3 h; Antipyretic activity, .increment. °C. ([4]; 12.5 mg/kg): -1.60 °C
O=c1c2ccccc2oc(=S)n1CCCCSc1ccncc1 [Example 162, 3-[4-(4-pyridylthio)butyl]-2H-1,3-benzoxadine-2-thion-4(3H)-on] | – | – | -31% | -54% | – | – | 34% | Inhibitory activity (PAF induced respiratory tract constriction) ([6]; 3 mg/kg): 39.8%
O=C1CSC(=O)N1CSc1ccncc1 [Example 169, 4-(2,4-thiazolidinedionemethylthio)pyridine] | – | – | – | – | 2 h | -2.43 °C | 44% | inhibition in vivo at 50 mg/kg [7]: 96%; % Of Control (pain threshold) ([8]; 50 mg/kg, 1 hour): 215.2 ± 16.1 % Of Control; % Of Control (pain threshold) ([8]; 50 mg/kg, 2 hours): 158.4 ± 26.2 % Of Control; % Of Control (pain threshold) ([8]; 200 mg/kg, 1 hour): 242 ± 21.9 % Of Control; % Of Control (pain threshold) ([8]; 200 mg/kg, 2 hours): 326.1 ± 80.1 % Of Control; Antipyretic activity, peak time ([4]; 12.5 mg/kg): 2 h; Antipyretic activity, .increment. °C. ([4]; 12.5 mg/kg): -2.13 °C
CC1(C)OC(=O)N(CSc2ccncc2)C1=O [Example 173, 4-(5,5-dimethyloxazolidine-2,4-dione)methylthiopyridine] | – | – | – | – | 2 h | -2.02 °C | 23% | Expression Inhibitory Potency, ICAM-1 (ICAM-1; 30 μM): 35%; inhibition in vivo at 50 mg/kg [7]: 75%; % Of Control (pain threshold) ([8]; 200 mg/kg, 1 hour): 222.7 ± 26.4 % Of Control; % Of Control (pain threshold) ([8]; 200 mg/kg, 2 hours): 165.8 ± 24.9 % Of Control
Cl.Cl.O=c1c2ccccc2n(CSc2ccncc2)c(=O)n1CCCCSc1ccncc1 [Example 199, 1-(4-pyridylthio)methyl-3-[4-(4-pyridylthio)butyl]quinazoline-2,4(1H,3H)-dione dihydrochloride] | – | – | – | – | – | – | – | Inhibitory activity (PAF induced respiratory tract constriction) ([6]; 3 mg/kg): 53.5%
Cl.Cl.O=c1c2ccccc2n(CCCCSc2ccncc2)c(=S)n1CCCCSc1ccncc1 [Example 200, 1,3-bis[4-(4-pyridylthio)butyl]quinazoline-2(1H)-thion-4(3H)-one dihydrochloride] | – | – | – | – | – | – | – | Expression Inhibitory Potency, ICAM-1 (ICAM-1; 13 μM): 83%; Inhibitory activity (PAF induced respiratory tract constriction) ([6]; 10 mg/kg): 61.4%; Expression Inhibitory Potency, ELAM-1 (ELAM-1): 71%
CCC(=O)N(CCCCSc1ccncc1)c1ccccc1N(CCCCSc1ccncc1)C(=O)CC.Cl.Cl [Example 203, 1,2-bis[N-[4-(4-pyridylthio)butyl]-N-propionylamino]benzene dihydrochloride] | – | – | – | – | – | – | – | Inhibitory activity (PAF induced respiratory tract constriction) ([6]; 0.3 mg/kg): 90.4%
